Experimental data from US12679878B2, “CRF2 receptor agonists and their use in therapy” (SANOFI, priority 2020, dated 2026).
Where two headings read alike, the source gives them in different places. Starred links: 1 amine or outer side, 2 acyl side, 3 side chain; linkers in the order of their positions; H or OH if unused. Non-standard residues stand in square brackets, D forms with d. Residues, ends and D or L forms follow the SMILES beside them. Groups on a side chain read outwards from the residue. *: point of attachment. C18 diacid = O=C(O)CCCCCCCCCCCCCCCCC(=O)*; γGlu = O=C(O)[C@H](CCC(=O)[*:2])N[*:1]; AEEA = NCCOCCOCC(=O)O; Aib = CC(C)(N)C(=O)O

Legend:
CRF1R receptor = target: T1, CRF1R receptor (Homo sapiens, UniProt P34998); assay: cAMP activity at anti-target CRF1R, CHO-K1 cell line clone 2 (Example 19.10); format: cell-based; conditions: CRF1R CHO-K1 clone 2; for EC50: 0% HSA, read-out: EC50 [nM] 0% HSA; for Emax: 100% = Sauvagine at 100 nM
T1 construct: host or cells: CHO-K1 clone 2
T1 sequence (P34998 24-415): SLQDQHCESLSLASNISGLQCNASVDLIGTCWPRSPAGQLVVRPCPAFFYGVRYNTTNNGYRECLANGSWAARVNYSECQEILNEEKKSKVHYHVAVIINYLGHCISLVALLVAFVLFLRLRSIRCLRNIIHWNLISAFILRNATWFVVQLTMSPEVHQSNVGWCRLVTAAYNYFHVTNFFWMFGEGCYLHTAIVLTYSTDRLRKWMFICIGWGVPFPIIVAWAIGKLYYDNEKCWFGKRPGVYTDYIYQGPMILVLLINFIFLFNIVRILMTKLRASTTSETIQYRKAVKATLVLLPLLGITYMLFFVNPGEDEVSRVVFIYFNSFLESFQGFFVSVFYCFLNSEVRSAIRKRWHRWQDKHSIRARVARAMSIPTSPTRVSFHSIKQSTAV
Procedure, shortened: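 The cAMP read-out used the same protocol as the previous assay, except that Sauvagine at 100 nM set the 100% activation control. Cells were CHO-K1 clone 2 overexpressing CRF1R, cultured in F12 medium with 10% FBS and G418 and stored frozen until use.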

human CRF2α receptor = target: T2, human CRF2α receptor (Homo sapiens, UniProt Q13324); assay: cAMP agonism at human CRF2 α receptor in TeloHEAC cells (Example 7); format: cell-based; conditions: cAMP HTRF, TeloHEAC cells stably expressing human CRF2 α
T2 construct: expressed in transfected cells; host or cells: TeloHEAC
T2 sequence (Q13324 1-411): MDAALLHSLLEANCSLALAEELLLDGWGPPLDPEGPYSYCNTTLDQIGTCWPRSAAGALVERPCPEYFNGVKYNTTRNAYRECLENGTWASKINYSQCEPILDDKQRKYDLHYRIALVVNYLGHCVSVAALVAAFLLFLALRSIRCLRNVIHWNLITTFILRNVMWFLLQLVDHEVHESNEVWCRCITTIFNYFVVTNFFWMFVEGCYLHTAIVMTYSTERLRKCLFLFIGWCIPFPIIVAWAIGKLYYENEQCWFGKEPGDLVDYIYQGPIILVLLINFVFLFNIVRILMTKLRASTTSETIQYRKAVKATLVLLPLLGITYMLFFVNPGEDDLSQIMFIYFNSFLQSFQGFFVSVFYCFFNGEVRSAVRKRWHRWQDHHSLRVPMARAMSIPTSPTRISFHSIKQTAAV
Procedure, shortened: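 Percent activation was referenced to 1000 nM UCN2 (100%), and EC50 values taken as concentrations giving half of maximal response. The read-out was a homogeneous time-resolved fluorescence cAMP kit, fluorescence ratio 665/620 nm. Thawed cells (2000/well) saw compound for 30 min at RT in buffer with 2 mM IBMX and 0%/0.1% HSA.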

[1] = 0% HSA, read-out: EC50 [nM], 0% HSA
[2] = 0.1% HSA, read-out: EC50 [nM], 0.1% HSA

Structure (SMILES) | EC50 (CRF1R receptor) [nM] | Emax (CRF1R receptor) [%] | EC50 (human CRF2α receptor; [1]) [nM] | EC50 (human CRF2α receptor; [2]) [nM]
CC[C@H](C)[C@H](N)C(=O)N[C@H](C(=O)N[C@@H](CC(C)C)C(=O)N[C@@H](CO)C(=O)N[C@@H](CC(C)C)C(=O)N[C@@H](CC(=O)O)C(=O)N[C@@H](C(=O)N1CCC[C@H]1C(=O)N[C@H](C(=O)N[C@@H](CCCCN)C(=O)N[C@@H](CC(C)C)C(=O)N[C@@H](CCCCNC(=O)COCCOCCNC(=O)COCCOCCNC(=O)CC[C@H](NC(=O)CCCCCCCCCCCCCCCCC(=O)O)C(=O)O)C(=O)N[C@@H](CCC(N)=O)C(=O)N[C@H](C(=O)N[C@@H](CC(C)C)C(=O)N[C@@H](CC(C)C)C(=O)N[C@@H](CCC(=O)O)C(=O)N[C@@H](CCC(N)=O)C(=O)N[C@@H](C)C(=O)N[C@@H](CCCCN)C(=O)N[C@@H](CCC(N)=O)C(=O)N[C@@H](CCCCN)C(=O)NC(C)(C)C(=O)N[C@@H](CCC(N)=O)C(=O)N[C@@H](CCCNC(=N)N)C(=O)N[C@@H](C)C(=O)N[C@@H](CCC(N)=O)C(=O)N[C@@H](C)C(=O)N[C@@H](CCC(=O)O)C(=O)N[C@@H](CCCCN)C(=O)N[C@@H](CC(N)=O)C(=O)N[C@@H](CCCCN)C(=O)N[C@@H](CCCNC(=N)N)C(=O)N[C@H](C(=O)N[C@@H](CC(C)C)C(=O)N[C@@H](CCC(=O)O)C(=O)N[C@@H](CCCNC(=N)N)C(=O)N[C@H](C(N)=O)C(C)C)[C@@H](C)CC)[C@@H](C)CC)[C@@H](C)CC)C(C)C)C(C)C [compound 126] (H-IVLSLD[dV]PIKLK([AEEA-AEEA-γGlu-C18 diacid])QILLEQAKQK[Aib]QRAQAEKNKRILERV-NH2; N-terminus assumed) | > 100 | 36.5 | 0.22 | 5.59
CC[C@H](C)[C@H](N)C(=O)N[C@H](C(=O)N[C@@H](CC(C)C)C(=O)N[C@@H](CO)C(=O)N[C@@H](CC(C)C)C(=O)N[C@@H](CC(=O)O)C(=O)N[C@@H](C(=O)N1CCC[C@H]1C(=O)N[C@H](C(=O)N[C@@H](CCCCN)C(=O)N[C@@H](CC(C)C)C(=O)N[C@@H](CCCCNC(=O)COCCOCCNC(=O)COCCOCCNC(=O)CC[C@H](NC(=O)CCCCCCCCCCCCCCCCC(=O)O)C(=O)O)C(=O)N[C@@H](CCC(N)=O)C(=O)N[C@H](C(=O)N[C@@H](CC(C)C)C(=O)N[C@@H](CC(C)C)C(=O)N[C@@H](CCCCN)C(=O)N[C@@H](CCC(N)=O)C(=O)N[C@@H](CCC(=O)O)C(=O)N[C@@H](CCCNC(=N)N)C(=O)N[C@@H](CCC(N)=O)C(=O)N[C@@H](CCCCN)C(=O)NC(C)(C)C(=O)N[C@@H](CCC(N)=O)C(=O)N[C@@H](CCCNC(=N)N)C(=O)N[C@@H](CCC(=O)O)C(=O)N[C@@H](CCCCN)C(=O)N[C@@H](C)C(=O)N[C@@H](CCC(=O)O)C(=O)N[C@@H](CCCCN)C(=O)N[C@@H](CC(N)=O)C(=O)N[C@@H](CCCCN)C(=O)N[C@@H](CCC(N)=O)C(=O)N[C@H](C(=O)N[C@@H](CC(C)C)C(=O)N[C@@H](C)C(=O)N[C@@H](CCC(N)=O)C(=O)N[C@H](C(N)=O)C(C)C)[C@@H](C)CC)[C@@H](C)CC)[C@@H](C)CC)C(C)C)C(C)C [compound 134] (H-IVLSLD[dV]PIKLK([AEEA-AEEA-γGlu-C18 diacid])QILLKQERQK[Aib]QREKAEKNKQILAQV-NH2; N-terminus assumed) | > 100 | -8.6 | 0.07 | 3.44

Now from value to compound:

EC50 (CRF1R receptor) [nM] | Emax (CRF1R receptor) [%] | EC50 (human CRF2α receptor; [1]) [nM] | EC50 (human CRF2α receptor; [2]) [nM] | Structure (SMILES)
> 100 | 2.6 | 0.29 | 14.3 | CC[C@H](C)[C@H](N)C(=O)N[C@H](C(=O)N[C@@H](CC(C)C)C(=O)N[C@@H](CO)C(=O)N[C@@H](CC(C)C)C(=O)N[C@@H](CC(=O)O)C(=O)N[C@H](C(=O)N1CCC[C@H]1C(=O)N[C@H](C(=O)NCC(=O)N[C@@H](CC(C)C)C(=O)N[C@@H](CCCCNC(=O)COCCOCCNC(=O)COCCOCCNC(=O)CC[C@H](NC(=O)CCCCCCCCCCCCCCCCC(=O)O)C(=O)O)C(=O)N[C@@H](CCC(N)=O)C(=O)N[C@H](C(=O)N[C@@H](CC(C)C)C(=O)N[C@@H](CC(C)C)C(=O)N[C@@H](CCCCN)C(=O)N[C@@H](CCC(N)=O)C(=O)N[C@@H](CCC(=O)O)C(=O)N[C@@H](CCCNC(=N)N)C(=O)N[C@@H](CCC(N)=O)C(=O)N[C@@H](CCCCN)C(=O)N[C@@H](CCCCN)C(=O)NC(C)(C)C(=O)N[C@@H](CCCNC(=N)N)C(=O)N[C@@H](CCC(=O)O)C(=O)N[C@@H](CCC(N)=O)C(=O)N[C@@H](C)C(=O)N[C@@H](CCC(=O)O)C(=O)N[C@H](C(=O)N[C@@H](CC(N)=O)C(=O)N[C@@H](CCCCN)C(=O)N[C@@H](CCCNC(=N)N)C(=O)N[C@H](C(=O)N[C@@H](CC(C)C)C(=O)N[C@@H](CCC(=O)O)C(=O)N[C@@H](CCCNC(=N)N)C(=O)N[C@H](C(N)=O)C(C)C)[C@@H](C)CC)[C@@H](C)O)[C@@H](C)CC)[C@@H](C)CC)C(C)C)C(C)C [compound 148] (H-IVLSLDVPIGLK([AEEA-AEEA-γGlu-C18 diacid])QILLKQERQKK[Aib]REQAETNKRILERV-NH2; N-terminus assumed)
> 100 | 6.6 | 0.06 | 2.54 | CC[C@H](C)[C@H](N)C(=O)N[C@H](C(=O)N[C@@H](CC(C)C)C(=O)N[C@@H](CO)C(=O)N[C@@H](CC(C)C)C(=O)N[C@@H](CC(=O)O)C(=O)N[C@@H](C(=O)N1CCC[C@H]1C(=O)N[C@H](C(=O)N[C@@H](CCCCN)C(=O)N[C@@H](CC(C)C)C(=O)N[C@@H](CCCCNC(=O)COCCOCCNC(=O)COCCOCCNC(=O)CC[C@H](NC(=O)CCCCCCCCCCCCCCCCC(=O)O)C(=O)O)C(=O)N[C@@H](CCC(N)=O)C(=O)N[C@H](C(=O)N[C@@H](CC(C)C)C(=O)N[C@@H](CC(C)C)C(=O)N[C@@H](CCCCN)C(=O)N[C@@H](CCC(N)=O)C(=O)N[C@@H](CCC(=O)O)C(=O)N[C@@H](CCCNC(=N)N)C(=O)N[C@@H](CCC(N)=O)C(=O)N[C@@H](CCCCN)C(=O)N[C@@H](CCCCN)C(=O)NC(C)(C)C(=O)N[C@@H](CCCNC(=N)N)C(=O)N[C@@H](CCC(=O)O)C(=O)N[C@@H](CCC(N)=O)C(=O)N[C@@H](C)C(=O)N[C@@H](CCC(=O)O)C(=O)N[C@H](C(=O)N[C@@H](CC(N)=O)C(=O)N[C@@H](CCCCN)C(=O)N[C@@H](CCCNC(=N)N)C(=O)N[C@H](C(=O)N[C@@H](CC(C)C)C(=O)N[C@@H](CCC(=O)O)C(=O)N[C@@H](CCCNC(=N)N)C(=O)N[C@H](C(N)=O)C(C)C)[C@@H](C)CC)[C@@H](C)O)[C@@H](C)CC)[C@@H](C)CC)C(C)C)C(C)C [compound 149] (H-IVLSLD[dV]PIKLK([AEEA-AEEA-γGlu-C18 diacid])QILLKQERQKK[Aib]REQAETNKRILERV-NH2; N-terminus assumed)
> 100 | 7.2 | 0.07 | 3.99 | CC[C@H](C)[C@H](N)C(=O)N[C@H](C(=O)N[C@@H](CC(C)C)C(=O)N[C@@H](CO)C(=O)N[C@@H](CC(C)C)C(=O)N[C@@H](CC(=O)O)C(=O)N[C@@H](C(=O)N1CCC[C@H]1C(=O)N[C@H](C(=O)NCC(=O)N[C@@H](CC(C)C)C(=O)N[C@@H](CCCCNC(=O)COCCOCCNC(=O)COCCOCCNC(=O)CC[C@H](NC(=O)CCCCCCCCCCCCCCCCC(=O)O)C(=O)O)C(=O)N[C@@H](CCC(N)=O)C(=O)N[C@H](C(=O)N[C@@H](CC(C)C)C(=O)N[C@@H](CC(C)C)C(=O)N[C@@H](CCCCN)C(=O)N[C@@H](CCC(N)=O)C(=O)N[C@@H](CCC(=O)O)C(=O)N[C@@H](CCCNC(=N)N)C(=O)N[C@@H](CCC(N)=O)C(=O)N[C@@H](CCCCN)C(=O)N[C@@H](CCCCN)C(=O)NC(C)(C)C(=O)N[C@@H](CCCNC(=N)N)C(=O)N[C@@H](CCC(N)=O)C(=O)N[C@@H](CCC(N)=O)C(=O)N[C@@H](C)C(=O)N[C@@H](CCC(=O)O)C(=O)N[C@H](C(=O)N[C@@H](CC(N)=O)C(=O)N[C@@H](CCCCN)C(=O)N[C@@H](CCCNC(=N)N)C(=O)N[C@H](C(=O)N[C@@H](CC(C)C)C(=O)N[C@@H](CCC(=O)O)C(=O)N[C@@H](CCCNC(=N)N)C(=O)N[C@H](C(N)=O)C(C)C)[C@@H](C)CC)[C@@H](C)O)[C@@H](C)CC)[C@@H](C)CC)C(C)C)C(C)C [compound 150] (H-IVLSLD[dV]PIGLK([AEEA-AEEA-γGlu-C18 diacid])QILLKQERQKK[Aib]RQQAETNKRILERV-NH2; N-terminus assumed)
